In one assay the target is T1, mutant MGL (Homo sapiens, UniProt Q99685, L169S/L176S).
T1 sequence (Q99685 1-303 L169S/L176S): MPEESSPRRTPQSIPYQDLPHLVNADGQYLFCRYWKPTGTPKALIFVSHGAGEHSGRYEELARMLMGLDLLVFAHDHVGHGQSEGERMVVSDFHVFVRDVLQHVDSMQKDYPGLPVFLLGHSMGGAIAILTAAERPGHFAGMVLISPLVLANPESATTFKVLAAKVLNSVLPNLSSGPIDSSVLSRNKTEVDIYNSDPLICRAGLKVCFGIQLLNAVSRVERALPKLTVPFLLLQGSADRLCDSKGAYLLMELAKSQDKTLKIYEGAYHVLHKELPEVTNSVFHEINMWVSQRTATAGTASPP
Kind of assay: MGL ThermoFluor assay - mutant. The format is binding.

Assay [1] concerns the target T2, purified wild type MGL (wt-MGLL 6H-11-313) (Homo sapiens, UniProt Q99685).
T2 sequence (Q99685 1-303): T1 sequence (Q99685 1-303 L169S/L176S) with S169L, S176L

[2] abbreviates: ThermoFluor, compound concentration measured by qNMR, read-out: MGL mutant ThermoFluor qKd (μM) (using qNMR conc.).
The mark [3] stands for this setting: ThermoFluor concentration-response, read-out: MGL mutant ThermoFluor Kd.
The mark [4] stands for this setting: ThermoFluor, compound concentration measured by qNMR, read-out: MGL mutant ThermoFluor qKd (using qNMR conc.).
Setting [5] is: ThermoFluor thermal stability binding assay, read-out: MGL mutant ThermoFluor Kd.
The mark [6] stands for this setting: compound concentration measured by qNMR, read-out: MGL mutant ThermoFluor qKd (using qNMR conc.).

The values below come from patent publication US8362000B2, “Azetidinyl diamides as monoacylglycerol lipase inhibitors” (Janssen Pharmaceutica NV, priority 2009, dated 2013).

Positions count from the first letter of the chain named. Where two headings read alike, the source gives them in different places. Bounds are passed on as bounds.

Regarding `O=C(CN1C(=O)c2ccccc2S1(=O)=O)N1CC(N2CCN(C(=O)c3nccs3)CC2)C1` [Cpd 1432], the Kd on mutant MGL (setting [2]) was greater than 28.4 µM. The compound also had an IC50 in assay [1] greater than 16700 nM.
With `O=C(c1ccc(N2CCOCC2)cc1)N1CC(N2CCN(C(=O)c3nccs3)CC2)C1` [Cpd 815], the Kd at mutant MGL (setting [3]) turned out to be 0.25 µM. The compound also came in with an IC50 in assay [1] of 2490 nM.
For `O=C(c1ccc2[nH]c(C3CCCCC3)nc2c1)N1CC(N2CCN(C(=O)c3cscn3)CC2)C1` [Cpd 800], at mutant MGL (setting [3]), the Kd was found to be 1.1 µM. This compound registered an IC50 in assay [1] of 1700 nM.
As to `O=C(c1cn2cc(Br)ccc2n1)N1CC(N2CCN(C(=O)c3nccs3)CC2)C1` [Cpd 873], the Kd at mutant MGL (setting [4]) came out at 9.2 µM. The compound also showed an IC50 in assay [1] of 14700 nM.
Consider `O=C(c1ccc(-c2ccccc2)cc1)N1CC(N2CCN(C(=O)c3ccon3)CC2)C1` [Cpd 1262], for which the Kd on mutant MGL (setting [5]) was 0.278 µM. In assay [1], the IC50 worked out at 950 nM.
In the same order, the values of `O=C(c1ccc(-c2ccccc2)cc1)N1CC(N2CCN(C(=O)C3CCC3)CC2)C1` [Cpd 1232] are 0.345 µM and 326 nM.
For `O=C(c1ccc2c(c1)ncn2C1CCC(F)(F)CC1)N1CC(N2CCN(C(=O)c3cscn3)CC2)C1` [Cpd 834], the Kd on mutant MGL (setting [6]) was determined as 0.234 µM. Besides, in assay [1], inhibition was half-maximal at 4600 nM (IC50).
As for `Cc1c(C(=O)N2CC(N3CCN(C(=O)c4cscn4)CC3)C2)oc2ccc(F)cc12` [Cpd 862], on mutant MGL (setting [3]), the Kd was greater than 21.9 µM. The compound further came in with an IC50 in assay [1] of 9510 nM.
Consider `O=C(c1ccc2[nH]c(-c3ccccc3)nc2c1)N1CCN(C2CN(C(=O)c3ccccc3)C2)CC1` [Cpd 611], for which, at mutant MGL (setting [3]), the Kd turned out to be 5.15 µM. Moreover, the IC50 in assay [1] came out at 13300 nM.
On to `O=C(c1ccc2c(ccn2-c2ccc(F)cn2)c1)N1CC(N2CCN(C(=O)c3nccs3)CC2)C1` [Cpd 1121, 1-(5-Fluoropyridin-2-yl)-5-({3-[4-(1,3-thiazol-2-ylcarbonyl)piperazin-1-yl]azetidin-1-yl}carbonyl)-1H-indole], for which the Kd on mutant MGL (setting [4]) is 0.042 µM. The same compound had an IC50 in assay [1] of 18 nM.
Regarding `O=C(c1ccc2c(c1)[nH]c(=O)n2C1CCC(F)(F)CC1)N1CC(N2CCN(C(=O)c3nccs3)CC2)C1` [Cpd 932], on mutant MGL (setting [3]), the Kd was found to be 0.008 µM. In assay [1], this compound yielded a 50% inhibitory concentration (IC50) of 104 nM.
For `O=C(c1ccccc1)N1CCN(C2CN(C(=O)c3ccc4c(cnn4-c4ccc(F)c(F)c4)c3)C2)CC1` [Cpd 590], at mutant MGL (setting [2]), the Kd turned out to be 0.182 µM. The IC50 in assay [1] was 186 nM.
On to `O=C(c1ccc2nc(C(F)(F)F)cc(Cl)c2c1)N1CC(N2CCN(C(=O)c3nccs3)CC2)C1` [Cpd 779], for which, at mutant MGL (setting [3]), the Kd was determined as 0.1 µM. For the same compound, 944 nM corresponded to half-maximal inhibition in assay [1] (IC50).
With `O=C(c1ccc(-c2ccccc2)cc1)N1CCN(C2CN(C(=O)c3cscn3)C2)CC1` [Cpd 1246, 1-(Biphenyl-4-ylcarbonyl)-4-[1-(1,3-thiazol-4-ylcarbonyl)azetidin-3-yl]piperazine], the Kd on mutant MGL (setting [3]) was determined as 0.042 µM. Further, the IC50 in assay [1] stood at 506 nM.
As to `Cc1nc2cc(C(=O)N3CC(N4CCN(C(=O)c5nccs5)CC4)C3)ccc2n1-c1ccc(F)cc1` [Cpd 1227], the Kd at mutant MGL (setting [6]) is 0.011 µM. Also, in assay [1], inhibition was half-maximal at 287 nM (IC50).
With `Cc1ccc2c(C(F)(F)F)c(C(=O)N3CC(N4CCN(C(=O)c5cscn5)CC4)C3)sc2c1` [Cpd 712, 1-(1-{[6-Methyl-3-(trifluoromethyl)-1-benzothiophen-2-yl]carbonyl}azetidin-3-yl)-4-(1,3-thiazol-4-ylcarbonyl)piperazine], the Kd on mutant MGL (setting [3]) amounted to 0.028 µM. In assay [1], this compound had an IC50 of 127 nM.
Take `O=C(c1cn2cc(C(F)(F)F)ccc2n1)N1CC(N2CCN(C(=O)c3nccs3)CC2)C1` [Cpd 1453]: the Kd on mutant MGL (setting [2]) turned out to be 10 µM. For the same compound, the IC50 in assay [1] is greater than 16700 nM.
In the case of `O=C(c1cc2cc(-c3ccc(F)cc3)cnc2o1)N1CC(N2CCN(C(=O)c3nccs3)CC2)C1` [Cpd 1213], the Kd at mutant MGL (setting [2]) was found to be 0.765 µM. Besides, in assay [1], the IC50 turned out to be 206 nM.
As to `O=C(c1ccc2c(c1)[nH]c(=O)n2-c1ccc(F)c(F)c1)N1CC(N2CCN(C(=O)c3cscn3)CC2)C1` [Cpd 941], the Kd on mutant MGL (setting [3]) is 0.389 µM. Further, in assay [1], the midpoint of inhibition, the IC50, lay at 1370 nM.
`Cc1cc(C(=O)N2CC(N3CCN(C(=O)c4nccs4)CC3)C2)c(C)n1Cc1ccc(S(N)(=O)=O)cc1` [Cpd 1042]: the Kd on mutant MGL (setting [4]) worked out at 5 µM. In assay [1], this compound showed an IC50 of 5270 nM.
